According to patent US20260306460A1, “COMPOSITION FOR REMOVING AND INHIBITING SENESCENT CELLS, AND USES THEREOF” (LIFECEUTIX CO., LTD., priority 2023, published 2026):

Tests used:
[1] = tested on: naturally aged mice; assay: Anti-aging evaluation in naturally aged mice, Example 31, Table 55; type: in vivo, mouse; conditions: for Femur Ctsk mRNA / Kidney Agtr1a mRNA / Liver IL6 mRNA / Liver MMP3 mRNA / Liver p16 mRNA / Open Field Test Time in Center: untreated = 100%; for Heart Sur2a mRNA / Joint Col2a1 mRNA / Skin Col1a1 mRNA / Skin SDF1 mRNA: untreated = 1.0; for Muscle Mass: untreated 0.64 g; for Fat Mass: untreated 0.82 g; for Cataract incidence: untreated 83%;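 as to all read-outs here: Vehicle-dosed control mice received solution alone at matching volume, values compare test-compound-treated aged mice against that control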
[2] = tested on: bleomycin-induced pulmonary fibrosis mice; assay: Bleomycin-induced pulmonary fibrosis mice, Example 31, Table 56; type: in vivo, mouse; conditions: untreated = 100%
Description: (§1) The control group was administered only the solution in the same volume. After the end of drug administration, the method described in each example below was performed. Liver, kidney, skin, knee joint, heart, and femur tissues were collected from mice in which natural aging was induced in the same manner as in Examples 7-2 and 7-6 of WO2023-085787 A1. Lung tissues were collected from mice in which pulmonary fibrosis was induced using the same method as in Example 24-1. Liver tissues were collected from mice in which hepatic fibrosis was induced using the same method as in Example 26, and total RNA was extracted. qRT-PCR was performed and analyzed using the synthesized cDNA. […] The mRNA amounts of p16, MMP3, and IL6 after natural aging was induced were calculated as 100% and compared with the mRNA amounts of p16, MMP3, and IL6 after treatment with the test compound. In addition, an open field test for the analysis of aging-related frailty, agtr1a mRNA analysis for kidney damage and disease evaluation, col1a1 and SDF1 mRNA analysis for skin aging evaluation such as wrinkles/loss of elasticity/hyperpigmentation, col2a1 mRNA analysis for evaluating joint aging such as osteoarthritis, sur2a mRNA analysis for evaluating cardiac aging such as decreased cardiac load resistance, ctsk mRNA analysis for evaluating bone diseases due to aging such as osteoporosis, muscle tissue weight for analyzing sarcopenia, fat tissue weight for analyzing lipoatrophy, and cataract incidence analysis were performed in mice. For cataract incidence analysis, the drug was administered twice a week under the conditions specified above, and biweekly examinations were conducted until death.
The table below quantitatively presents the evaluation results for each item in mice with bleomycin-induced pulmonary fibrosis, untreated and treated with the test compound.

[3] = tested on: carbon tetrachloride-induced liver fibrosis mice; assay: Carbon tetrachloride-induced liver fibrosis mice, Example 31, Table 57; type: in vivo, mouse; conditions: CCl4-induced liver fibrosis mice, untreated = 100%
Description: as §1

[4] = tested on: senescent cells; assay: Viability of senescent cells (CellTiter-Glo), Example 17, Table 13; conditions: Homo sapiens, read-out: Survival (%)
Description: Cells induced to undergo senescence by doxorubicin treatment were treated with test compound at designated concentrations and measured using the CellTiter-Glo Luminescent Cell Viability Assay (Promega).

[5] = tested on: senescent A549 cells; assay: Viability of senescent A549 cells (CellTiter-Glo), Example 18, Table 15; conditions: Homo sapiens, A549, read-out: Survival (%)
Description: Senescence-induced cancer cells treated with doxorubicin were treated with the test compound at designated concentrations, and cell viability was measured using the CellTiter-Glo Luminescent Cell Viability Assay (Promega).

Row | SMILES | Femur Ctsk mRNA [1] [%] | Heart Sur2a mRNA [1] [fold] | Joint Col2a1 mRNA [1] [fold] | Kidney Agtr1a mRNA [1] [%] | Liver IL6 mRNA [1] [%] | Liver MMP3 mRNA [1] [%] | Liver p16 mRNA [1] [%] | Open Field Test Time in Center [1] [%] | Skin Col1a1 mRNA [1] [Fold] | Skin SDF1 mRNA [1] [fold] | Muscle Mass [1] [g] | Fat Mass [1] [g] | Cataract incidence [1] [%] | Lung p16 mRNA [2] | Col1a1 mRNA [2] | Liver p16 mRNA [3] | Col1a1 mRNA [3] | viability at 1.1 µM [4] [%] | viability at 10 µM [4] [%] | viability at 1.1 µM [5] [%] | also measured
1 | CN(NC(=O)CC(=O)NN(C)C(=S)c1ccccc1)C(=S)c1ccccc1 [LX-6501, Elesclomol] | 64 | 1.8 | 2.7 | 49 | 46 | 56 | 38 | 214 | 1.9 | 2.2 | 0.71 | 0.89 | 48 | 68 (±4.4) % | 75 (±5.3) % | 34 (±3.0) % | 75 (±2.5) % | 94.5 | 71.5 | 97 | viability at 30 µM [4]: 7.8%; viability at 10 µM [5]: 62.4%; viability at 30 µM [5]: 13%
2 | CCN(CC1C(=O)C2CCN1CC2)C(=O)C(Cl)(Cl)Cl (centres unmarked) [LX-5702] | 61 | 2.5 | 2.4 | 49 | 49 | 55 | 47 | 211 | 1.8 | 2.0 | 0.70 | 0.85 | 66 | 61 (±6.2) % | 68 (±7.5) % | 72 (±3.9) % | 65 (±7.2) % | 97.5 | 5.2 | 91.8 | viability at 10 µM [5]: 38.1%; viability at 30 µM [5]: 3.9%
3 | Nc1ccc(/C=C/C(=O)NCc2cc3cc(-c4ccc(C(=O)N5CCC(F)(F)CC5)cc4)cc(-c4ccc(F)cc4)c3o2)cn1 [LX-8812, Padnarsertib] | 62 | 2.0 | 2.6 | 51 | 53 | 42 | 59 | 188 | 3.4 | 2.9 | 0.70 | 0.96 | 54 | 67 (±5.6) % | 77 (±6.2) % | 63 (±3.9) % | 64 (±3.1) % | 94.6 | 49.3 | 100 | viability at 30 µM [4]: 29.2%; viability at 10 µM [5]: 61.6%; viability at 30 µM [5]: 24.9%
